pEC50, pIC50: −log10 of the molar value. Like-named read-outs stand apart in the source and are kept apart here.
Experiments:
M07e [1] = test: cells; set-up: species or system AML cell lines (8); conditions: M-07e, 72 h, read-out: M07e
CMK [2] = test: Secondary dose-response HTS, Cell Titer Glo; format: cell-based, human; conditions: for pEC50: Homo sapiens
U937 [3] = test: cells; set-up: species or system AML cell lines (8); conditions: Homo sapiens, U-937, 72 h, read-out: U937
ML-2 = test: cells; set-up: species or system AML cell lines (8); conditions: Homo sapiens, ML-2, 72 h, read-out: ML-2
U937 [4] = test: Secondary dose-response HTS, Cell Titer Glo; format: cell-based, human; conditions: for pEC50: Homo sapiens, U-937
MV4-11 [5] = test: Secondary dose-response HTS, Cell Titer Glo; format: cell-based, human; conditions: for pEC50: Homo sapiens
CHRF288-11 [6] = test: cells; set-up: species or system AML cell lines (8); conditions: 72 h, read-out: CHRF288-11
CMS [7] = test: Secondary dose-response HTS, Cell Titer Glo; format: cell-based, human; conditions: for pEC50: Homo sapiens
MOLM-13 [8] = test: cells; set-up: species or system AML cell lines (8); Secondary HTS, 10-point dose-response in triplicate, Cell Titer Glo viability, four-parameter fit EC50; conditions: Homo sapiens; 72 h cell viability; read-out: MOLM-13
MOLM-13 [9] = test: Secondary dose-response HTS, Cell Titer Glo; format: cell-based, human; conditions: for pEC50: Homo sapiens
CMK [10] = test: cells; set-up: species or system AML cell lines (8); conditions: Homo sapiens, 72 h, read-out: CMK
M07e [11] = test: Secondary dose-response HTS, Cell Titer Glo; format: cell-based, human; conditions: for pEC50: Homo sapiens, M-07e
ML2 = test: Secondary dose-response HTS, Cell Titer Glo; format: cell-based, human
CMS [12] = test: cells; set-up: species or system AML cell lines (8); conditions: 72 h, read-out: CMS
MV4-11 [13] = test: cells; set-up: species or system AML cell lines (8); conditions: Homo sapiens, MV4-11, 72 h, read-out: MV4-11
CHRF288-11 [14] = test: Secondary dose-response HTS, Cell Titer Glo; format: cell-based, human; conditions: for pEC50: Homo sapiens
[15] = tested on: MLLr primary AML blast samples; test: Ex vivo drug treatment of primary AML blasts on mesenchymal stromal cells; format: cell-based; conditions: Homo sapiens; primary blasts on MSC, 96 h, range over patient samples
[16] = tested on: AMKL primary AML blast samples; test: as above; format: cell-based; conditions: Homo sapiens; primary blasts on MSC, 96 h
[17] = tested on: FLT3-ITD+ primary AML blast samples
[18] = secondary high-throughput screen, CMK, read-out: average effective concentration, CMK
[19] = secondary high-throughput screen, MV4-11, read-out: average effective concentration, MV4-11
[20] = secondary high-throughput screen, MOLM-13, read-out: average effective concentration, MOLM-13
[21] = secondary high-throughput screen, M07e, read-out: average effective concentration, M07e

pEC50 (MV4-11 [5]; [19]) | pIC50 [15] | pEC50 (MOLM-13 [9]; [20]) | pIC50 [16] | pIC50 [17] | SMILES | pEC50 (M07e [1]) | pEC50 (U937 [3]) | pEC50 (ML-2) | pEC50 (CHRF288-11 [6]) | pEC50 (MOLM-13 [8]) | pEC50 (CMK [10]) | pEC50 (CMS [12]) | pEC50 (MV4-11 [13]) | pEC50 (CMK [2]; [18]) | pEC50 (M07e [11]; [21]) | other results
 |  |  |  |  | O=P1(N(CCCl)CCCl)NCCCO1 (stereo not shown) [CYCLOPHOSPHAMIDE] | < 5.00 | < 5.00 | < 5.00 | < 5.00 | < 5.00 | < 5.00 | < 5.00 | < 5.00 |  |  | average effective concentration, CMK (CMK [2]): Inactive; average effective concentration, U937 (U937 [4]): Inactive; average effective concentration, MV4-11 (MV4-11 [5]): Inactive; average effective concentration, CMS (CMS [7]): Inactive; average effective concentration, MOLM-13 (MOLM-13 [9]): Inactive; average effective concentration, M07e (M07e [11]): Inactive; average effective concentration, ML-2 (ML2): Inactive; average effective concentration, CHRF288-11 (CHRF288-11 [14]): Inactive
8.96 | 7.28 to 8.37 | 8.26 | 7.27 | 7.21 to 8.22 | CC(C)C[C@H](NC(=O)[C@H](CCc1ccccc1)NC(=O)CN1CCOCC1)C(=O)N[C@@H](Cc1ccccc1)C(=O)N[C@@H](CC(C)C)C(=O)[C@@]1(C)CO1 [Carfilzomib, reference compound] |  |  |  |  |  |  |  |  | 8.22 | 8.85 | pEC50 (CMK [2]; CMK, secondary HTS, 72 h, average of triplicate, read-out: EC50 CMK): 8.00; pEC50 (U937 [4]; secondary HTS, 72 h, average of triplicate, read-out: EC50 U937): 8.00; pEC50 (MV4-11 [5]; MV4-11, secondary HTS, 72 h, average of triplicate, read-out: EC50 MV4-11): 9.00; pEC50 (CMS [7]; secondary HTS, 72 h, average of triplicate, read-out: EC50 CMS): 9.00; pEC50 (MOLM-13 [9]; MOLM-13, secondary HTS, 72 h, average of triplicate, read-out: EC50 MOLM-13): 8.00; pEC50 (M07e [11]; secondary HTS, 72 h, average of triplicate, read-out: EC50 M07e): 9.00; pEC50 (CHRF288-11 [14]; HTS, secondary high-throughput screen, CHRF288-11, read-out: average effective concentration, CHRF288-11): 7.72; pEC50 (CHRF288-11 [14]; secondary HTS, 72 h, average of triplicate, read-out: EC50 CHRF288-11): 7.70
 |  |  |  |  | COC1=CC(=O)O[C@@H](/C=C/c2ccc3c(c2)OCO3)C1 [METHYSTICIN] | < 5.00 | < 5.00 | < 5.00 | < 5.00 | < 5.00 | < 5.00 | < 5.00 | < 5.00 |  |  | average effective concentration, CMK (CMK [2]; secondary high-throughput screen, CMK): Inactive; average effective concentration, U937 (U937 [4]; secondary high-throughput screen, U937): Inactive; average effective concentration, MV4-11 (MV4-11 [5]; secondary high-throughput screen, MV4-11): Inactive; average effective concentration, CMS (CMS [7]; secondary high-throughput screen, CMS): Inactive; average effective concentration, MOLM-13 (MOLM-13 [9]; secondary high-throughput screen, MOLM-13): Inactive; average effective concentration, M07e (M07e [11]; secondary high-throughput screen, […]): Inactive; average effective concentration, ML-2 (ML2; secondary high-throughput screen, ML-2): Inactive; average effective concentration, CHRF288-11 (CHRF288-11 [14]; secondary high-throughput screen, CHRF288-11): Inactive
 |  |  |  |  | CCc1ccc(CCOc2ccc(CC3SC(=O)NC3=O)cc2)nc1 (stereo not shown) [PIOGLITAZONE] | < 5.00 | < 5.00 | < 5.00 | < 5.00 | < 5.00 | < 5.00 | < 5.00 | < 5.00 |  |  | 
 | 5.40 to 5.95 |  | 5.29 | 5.28 to 6.01 | CC(=O)c1c(C)c2cnc(Nc3ccc(N4CCNCC4)cn3)nc2n(C2CCCC2)c1=O [Palbociclib, reference compound] |  |  |  |  |  |  |  |  | 5.46 |  | pEC50 (U937 [4]; secondary high-throughput screen, U937, read-out: average effective concentration, U937): 5.00; pEC50 (CMS [7]; HTS, secondary high-throughput screen, CMS, read-out: average effective concentration, CMS): 5.04
5.60 | 6.07 to 6.83 | 6.54 |  | 6.02 to 7.11 | CCOc1cc(C(C)(C)C)ccc1C1=N[C@@](C)(c2ccc(Cl)cc2)[C@@](C)(c2ccc(Cl)cc2)N1C(=O)N1CCN(CCCS(C)(=O)=O)CC1 [RG7112, reference compound] |  |  |  |  |  |  |  |  |  | < 5.00 | pEC50 (ML2; Homo sapiens, secondary high-throughput screen, ML-2, read-out: average effective concentration, ML-2): 5.17
